Patent publication US10918743B2, “Contrast medium formulation and related preparation method” (GUERBET, priority 2013, dated 2021)

Assay: Thermodynamic equilibrium constant for the complexation of Gd3+
Assay type: physicochemical
Details: complexation of Gd^3+ by the ligand
Source text: In the particular case where M represents a gadolinium ion, for the following chemical equilibria: [drawing 3] and DOTA+Gd ? [DOTA-Gd] (equation 2) the thermodynamic equilibrium constant of equation 1 (i.e. for the complexation of Gd^3+ by the ligand of formula I') is 10^14.9 (i.e. log ([…])=14.9), while the thermodynamic equilibrium constant of equation 2 (i.e. for the complexation of Gd^3+ by DOTA) is 10^25.6 (i.e. log ([…])=25.6). Thus, the formulations according to the invention go against the teachings of document U.S. Pat. No. 5,876,695 in particular, since the complex of DOTA with the gadolinium ion is more thermodynamically stable than the active complex.

| SMILES | log (Ktherm), thermodynamic equilibrium constant |
| --- | --- |
| O=C(O)CN1CCN(CC(=O)O)CCN(CC(=O)O)CCN(CC(=O)O)CC1 [DOTA, 1,4,7,10-tetraazacyclododecane-1,4,7,10-tetraacetic acid] | 25.6 |
| O=C(CCC(C(=O)O)N1CCN(C(CCC(=O)NCC(O)CO)C(=O)O)Cc2cccc(n2)CN(C(CCC(=O)NCC(O)CO)C(=O)O)CC1)NCC(O)CO (centres unmarked) [ligand of formula I′] | 14.9 |
